Experimental data: patent US7595074B2, “Polymeric antioxidants” (University of Massachusetts Lowell, priority 2002, dated 2009)
Where two headings read alike, the source gives them in different places.

Legend:
[1] = bleaching of a beta-carotene/linoleate model system (antioxidant activity); assay type: biochemical; set-up: % Antioxidant Activity of Monomer / % Antioxidant Activity: concentration or dose not given beside the values; conditions: for % Antioxidant Activity: compounds of each step of the Example 8 scheme, procedure of Food Chemistry 73:285-290 (2001)
Method: The antioxidant activity of monomers and enzymatically-prepared polymeric antioxidants was compared by measuring the bleaching of a beta-carotene system. In the model system, beta-carotene undergoes rapid discoloration in the absence of an antioxidant. The assay and measurements were conducted according to the procedure described in Jayaprakasha, G. K., et al. Food Chemistry 73: 285-290 (2001) and Hidalgo, M. E., et al. Phytochemistry 37: 1585-1587 (1994), the contents of which are incorporated herein by reference. Briefly, beta-carotene (0.2 mg), linoleic acid (20 mg), and 200 mg of Tween-40 (polyoxyethylene sorbitan monopalmitate) were dissolved in 0.5 mL of chloroform. The chloroform was removed under vacuum and the resulting mixture was immediately diluted with 10 mL of distilled water and mixed well for 1-2 minutes. The resulting emulsion was further made up to 50 mL with oxygenated water. Aliquots (4 mL) of the emulsion were mixed with 0.2 mL of test sample (monomer or polymer) in dimethylformamide (DMF), so that there were 100 ppm of monomer or polymer present in the aliquot. A control was prepared by mixing 0.2 mL of DMF with 4 mL of the above emulsion. The samples were incubated at 50° C. The absorbance of all samples at 470 nm was taken initially (t=0) and continued up to 180 minutes at 15 minute intervals. Antioxidant activity is calculated based on the formula: Antioxidant Activity=100(1−(Ao−At)/(A^1o−A^1t)), • Ao=absorbance of the test sample at zero time, • A^1o=absorbance of the control at zero time, • At=absorbance of the test sample at time t (180 min), and • A^1t=absorbance of the control at time t (180 min).
The antioxidant activity of several other antioxidant monomer/polymer pairs were determined by the procedure described in Example 3.
The antioxidant activity of compounds formed in each step of the scheme shown above were measured according to the procedure published in Food Chemistry 73:285-290 (2001).

[2] = thermogravimetric analysis (TGA); assay type: physicochemical; conditions: thermal stability, FIG. 4
[3] = oil stability index of cooking oil heated to frying temperature
Method: (§1) The oils were heated to frying temperature (190° C.) and their oil stability index was measured. The oil stability index (American Oil Chemists' Society Cd 126-92) measures the amount of time before the oil begins to rapidly oxidize. A greater length of time indicates an oil with a greater antioxidant capacity, which likely corresponds to a longer potential shelf life.

[4] = as above; remark: listed apart in the source
Method: as §1

[5] = quoted for comparison; cited from earlier work
[6] = test system: Sprague-Dawley albino rats; conditions: rat, in vivo
Method: A study was conducted based upon the standards of OECD Guidelines for Testing of Chemicals, OECD 423. Ten Sprague-Dawley albino rats were administered with 2000 mg/kg body weight poly(TBHQ) as a single dose via gastric gavage. After administration, the animals were returned to their cages and observed for signs of toxicity for up to 14 days. Body weights were determined prior to dosing and on the day of death or prior to terminal sacrifice. A second study was performed using three female rats with 500 mg/kg body weight of poly(TBHQ).

[7] = monomer, 100 ppm, 50° C., 180 min, Antioxidant Activity=100(1−(Ao−At)/(A1o−A1t))
[8] = monomer, procedure of Example 3

Compound: COc1ccc(O)cc1C(C)(C)C [2-tert-butyl-4-hydroxyanisole]
- Monomer Activity [1, 7]: 44.24
- temperature up to which there was about 15% mass loss (TGA) [2]: about 125 °C

Compound: OCc1cccc(O)c1 [3-hydroxybenzyl alcohol]
- Monomer Activity [1, 7]: 1.0
- % Antioxidant Activity of Monomer [1, 8]: 1.0%

Compound: Oc1ccc(N=Nc2ccccc2)cc1 [4-azophenylphenol]
- Monomer Activity [1, 7]: 5.4
- % Antioxidant Activity of Monomer [1, 8]: 5.4%

Compound: CC(C)(C)c1cc(O)ccc1O [TBHQ, tert-butyl-hydroquinone]
- oil stability index (time before the oil begins to rapidly oxidize) ([3]; Corn oil, 190° C., equal concentration of phenol moieties): 6.6 h
- % Antioxidant Activity [1]: 6.72%
- oil stability index (time before the oil begins to rapidly oxidize) ([4]; Canola oil, 190° C., equal concentration of phenol moieties): 10.8 h

Compound: CC(=O)Oc1ccc(OC(C)=O)c(C(C)(C)C)c1 [b]
- % Antioxidant Activity [1]: 2.45%

Compound: CC(=O)Oc1ccc(O)cc1C(C)(C)C [c, 4-acetyloxy-3-tert-butylphenol]
- % Antioxidant Activity [1]: 7.9%

Compound: Oc1ccccc1 [phenol]
- % Antioxidant Activity of Monomer [1]: 2.1%
- Monomer Activity [1]: 2.1

Compound: [Cl-].[Na+] [sodium chloride]
- oral LD50 [5]: about 3000 mg/kg

Compound: Poly(tert-butyl-hydroquinone) [Poly(TBHQ)]
- oil stability index (time before the oil begins to rapidly oxidize) [3]: 9.0 h
- female rats that died prior to completion of the study [6]: Three of the five
- gross necropsy of surviving animals [6]: None of the surviving animals showed abnormal signs
- necropsy finding in animals that did not survive 14 days [6]: the intestines were inflamed
- overall toxicity [6]: relatively low toxicity to rats
- survival [6]: survived the duration of the study
- oral LD50 ([6]; po): 500 to 2000 mg/kg
- oil stability index (time before the oil begins to rapidly oxidize) [4]: 19.2 h
